Experimental data reported in US4902698A, “Benzenesulphonamidopyridyl compounds which are useful as thromboxane A 2” (Smith Kline & French Laboratories Limited, priority 1988, dated 1990).

Target: T1, TXA2 receptors (Homo sapiens, UniProt P21731)
T1 construct: endogenous in cells; host or cells: human platelets
T1 sequence (P21731 1-343): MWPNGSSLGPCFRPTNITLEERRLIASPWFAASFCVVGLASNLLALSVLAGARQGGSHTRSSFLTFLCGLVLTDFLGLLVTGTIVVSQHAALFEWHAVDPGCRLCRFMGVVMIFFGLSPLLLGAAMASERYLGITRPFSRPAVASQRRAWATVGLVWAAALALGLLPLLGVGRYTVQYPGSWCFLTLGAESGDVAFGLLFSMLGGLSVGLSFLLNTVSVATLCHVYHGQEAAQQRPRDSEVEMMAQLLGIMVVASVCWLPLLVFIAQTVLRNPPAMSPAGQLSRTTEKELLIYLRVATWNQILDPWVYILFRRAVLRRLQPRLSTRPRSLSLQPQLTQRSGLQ
Experiment: human platelet binding assay ([125I]PTA-OH as receptor ligand)
Details: 50% inhibition of specific [^125 I]PTA-OH binding, human platelets
Procedure: As indicated above, compounds of the formula (I) have biological activity that is indicative of an ability to antagonise TXA2 receptors.
The platelet binding assay used was essentially the method described by Mais et al. J. Pharm. Exp. Ther., 1985, 235(3), 729-734 where [^125 I]PTA-OH was used as the receptor ligand.
The IC50 values represent the concentration which produces a 50% inhibition of specific [^125 I]PTA-OH binding.
The compounds of Examples 1 and 5 were tested in the human platelet binding assay.

O=C(O)CCCc1ccc(S(=O)(=O)Nc2ccc(Cl)cc2)cn1 [Example 9, 4-[5-(4-Chlorophenylsulphamoyl)pyrid-2-yl]-butanoic acid]
IC50: 21000 nM

O=C(O)CCCc1ccc(NS(=O)(=O)c2ccccc2)cn1 [Example 1, 4-(5-Benzenesulphonamidopyrid-2-yl)butanoic acid]
IC50: 1300 nM

O=C(O)CCCCc1ccc(NS(=O)(=O)c2ccc(Cl)cc2)cn1 [Example 6, 5-[5-(4-Chlorobenzenesulphonamido)pyrid-2-yl]pentanoic acid]
IC50: 1000 nM

O=C(O)CCCc1ccc(S(=O)(=O)Nc2ccccc2)cn1 [Example 10, 4-[5-(Phenylsulphamoyl)pyrid-2-yl)butanoic acid]
IC50: 28000 nM

O=C(O)CCCc1ncccc1NS(=O)(=O)c1ccccc1 [Example 4, 4-(3-Benzenesulphonamidopyrid-2-yl)butanoic acid]
IC50: 102000 nM

O=C(O)CCCCc1ccc(NS(=O)(=O)c2ccccc2)cn1 [Example 7, 5-[5-(Benzenesulphonamido)pyrid-2-yl]pentanoic acid]
IC50: 4000 nM

COc1ccc(S(=O)(=O)Nc2ccc(CCCC(=O)O)nc2)cc1 [Example 11, 4-[5-(4-Methoxybenzenesulphonamido)pyrid-2-yl]butanoic acid]
IC50: 5200 nM

Cc1ccc(S(=O)(=O)Nc2ccc(CCCC(=O)O)nc2)cc1 [Example 14, 4-[5-(4-Methylbenzenesulphonamido)pyrid-2-yl]butanoic acid]
IC50: 600 nM

O=C(O)CCc1ccc(NS(=O)(=O)c2ccc(Cl)cc2)cn1 [Example 8, 3-[5-(4-Chlorobenzenesulphonamido)pyrid-2-yl]propionic acid]
IC50: 251000 nM

O=C(O)CCCc1ccc(NS(=O)(=O)c2ccc(Br)cc2)cn1 [Example 13, 4-[5-(4-Bromobenzenesulphonamido)pyrid-2-yl]butanoic acid]
IC50: 200 nM

Cc1cc(NS(=O)(=O)c2ccccc2)cnc1CCCC(=O)O [Example 3, 4-(5-Benzenesulphonamido-3-methylpyrid-2-yl)butanoic acid]
IC50: 2600 nM

O=C(O)CCCc1ccc(NS(=O)(=O)c2cccc(Cl)c2)cn1 [Example 5, 4-[5-(3-Chlorobenzenesulphonamido)pyrid-2-yl]butanoic acid]
IC50: 1200 nM

O=C(O)CCCc1ccc(NS(=O)(=O)c2ccc(Cl)cc2)cn1 [Example 2, 4-[5-(4-Chlorobenzenesulphonamido)pyrid-2-yl]-butanoic acid]
IC50: 360 nM

O=C(O)CCCc1ccc(NS(=O)(=O)c2cccc(C(F)(F)F)c2)cn1 [Example 12, 4-[5-(3-Trifluoromethylbenzenesulphonamido)-pyrid-2-yl]butanoic acid]
IC50: 16000 nM

O=C(O)CCCc1ccc(NS(=O)(=O)c2ccc(Cl)c(Cl)c2)cn1 [Example 15, 4-[5-(3,4-Dichlorobenzenesulphonamido)pyrid-2-yl]butanoic acid]
IC50: 2100 nM
